Reference: ChEMBL document CHEMBL4507256 (2021)

Tests used:
[1] = biological target: Insulin receptor (Homo sapiens) (UniProt P06213); settings: Compound concentration 1000.0 nM
[2] = system: Phosphatidylinositol 4,5-bisphosphate 3-kinase catalytic subunit alpha isoform (Homo sapiens), P42336 [Q546K]; settings: Compound concentration 1000.0 nM
[3] = biological target: D(1A) dopamine receptor (Homo sapiens) (UniProt P21728); settings: Compound concentration 10.0 uM
[4] = biological target: Serine/threonine-protein kinase 38-like (Homo sapiens) (UniProt Q9Y2H1); settings: Compound concentration 1000.0 nM
[5] = biological target: Leukocyte tyrosine kinase receptor (Homo sapiens) (UniProt P29376); settings: Compound concentration 1000.0 nM
[6] = biological target: Membrane-associated tyrosine- and threonine-specific cdc2-inhibitory kinase (Homo sapiens) (UniProt Q99640); settings: Compound concentration 1000.0 nM
[7] = system: Receptor-type tyrosine-protein kinase FLT3 (Homo sapiens), P36888 [N841I]; settings: Compound concentration 1000.0 nM
[8] = biological target: Serine/threonine-protein kinase DCLK2 (Homo sapiens) (UniProt Q8N568); settings: Compound concentration 1000.0 nM
[9] = biological target: Activin receptor type-1B (Homo sapiens) (UniProt P36896); settings: Compound concentration 1000.0 nM
[10] = biological target: Leucine-rich repeat serine/threonine-protein kinase 2 (Homo sapiens) (UniProt Q5S007); settings: Compound concentration 1000.0 nM
[11] = biological target: SRSF protein kinase 3 (Homo sapiens) (UniProt Q9UPE1); settings: Compound concentration 1000.0 nM
[12] = biological target: Testis-specific serine/threonine-protein kinase 1 (Homo sapiens) (UniProt Q9BXA7); settings: Compound concentration 1000.0 nM
[13] = biological target: Insulin-like growth factor 1 receptor (Homo sapiens) (UniProt P08069); settings: Compound concentration 1000.0 nM
[14] = system: Epidermal growth factor receptor (Homo sapiens), P00533 [G719S]; settings: Compound concentration 1000.0 nM
[15] = biological target: Serine/threonine-protein kinase D1 (Homo sapiens) (UniProt Q15139); settings: Compound concentration 1000.0 nM
[16] = biological target: Serine/threonine-protein kinase DCLK3 (Homo sapiens) (UniProt Q9C098); settings: Compound concentration 1000.0 nM
[17] = biological target: Rhodopsin kinase GRK1 (Homo sapiens) (UniProt Q15835); settings: Compound concentration 1000.0 nM
[18] = biological target: Calcium-dependent protein kinase 1 (Plasmodium falciparum) (UniProt P62344); settings: Compound concentration 1000.0 nM
[19] = system: Phosphatidylinositol 4,5-bisphosphate 3-kinase catalytic subunit alpha isoform (Homo sapiens), P42336 [C420R]; settings: Compound concentration 1000.0 nM
[20] = biological target: Serine/threonine-protein kinase WNK4 (Homo sapiens) (UniProt Q96J92); settings: Compound concentration 1000.0 nM
[21] = biological target: Cyclin-dependent kinase 3 (Homo sapiens) (UniProt Q00526); settings: Compound concentration 1000.0 nM
[22] = biological target: T1, 5-hydroxytryptamine receptor 3A (Homo sapiens) (UniProt P46098); settings: Compound concentration 10.0 uM
T1 sequence (whole entry): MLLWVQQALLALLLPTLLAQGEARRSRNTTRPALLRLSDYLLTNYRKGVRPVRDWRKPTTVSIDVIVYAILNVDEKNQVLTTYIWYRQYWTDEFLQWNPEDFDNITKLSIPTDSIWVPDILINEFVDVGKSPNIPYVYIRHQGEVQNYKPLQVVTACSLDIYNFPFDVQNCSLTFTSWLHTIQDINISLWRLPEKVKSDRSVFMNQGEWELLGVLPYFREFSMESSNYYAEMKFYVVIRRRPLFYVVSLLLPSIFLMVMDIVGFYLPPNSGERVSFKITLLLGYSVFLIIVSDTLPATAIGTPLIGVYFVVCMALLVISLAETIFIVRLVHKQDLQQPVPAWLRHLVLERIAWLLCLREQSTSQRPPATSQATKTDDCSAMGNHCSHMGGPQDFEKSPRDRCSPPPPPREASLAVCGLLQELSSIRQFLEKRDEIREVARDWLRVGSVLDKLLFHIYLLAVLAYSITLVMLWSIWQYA

[23] = biological target: Alpha-2B adrenergic receptor (Homo sapiens) (UniProt P18089); settings: Compound concentration 10.0 uM
[24] = biological target: Ephrin type-A receptor 5 (Homo sapiens) (UniProt P54756); settings: Compound concentration 1000.0 nM
[25] = biological target: Tyrosine-protein kinase ABL2 (Homo sapiens) (UniProt P42684); settings: Compound concentration 1000.0 nM
[26] = biological target: D(3) dopamine receptor (Homo sapiens) (UniProt P35462); settings: Compound concentration 10.0 uM
[27] = biological target: Serine/threonine-protein kinase TAO2 (Homo sapiens) (UniProt Q9UL54); settings: Compound concentration 1000.0 nM
[28] = biological target: Mitogen-activated protein kinase kinase kinase 11 (Homo sapiens) (UniProt Q16584); settings: Compound concentration 1000.0 nM
[29] = biological target: Histamine H4 receptor (Homo sapiens) (UniProt Q9H3N8); settings: Compound concentration 10.0 uM
[30] = biological target: Mast/stem cell growth factor receptor Kit (Homo sapiens) (UniProt P10721); settings: Compound concentration 1000.0 nM
[31] = biological target: Protein kinase C theta type (Homo sapiens) (UniProt Q04759); settings: Compound concentration 1000.0 nM
[32] = biological target: Megakaryocyte-associated tyrosine-protein kinase (Homo sapiens) (UniProt P42679); settings: Compound concentration 1000.0 nM
[33] = biological target: Dual specificity mitogen-activated protein kinase kinase 2 (Homo sapiens) (UniProt P36507); settings: Compound concentration 1000.0 nM
[34] = biological target: Sodium-dependent noradrenaline transporter (Homo sapiens) (UniProt P23975); settings: Compound concentration 10.0 uM
[35] = biological target: Serine/threonine-protein kinase Chk1 (Homo sapiens) (UniProt O14757); settings: Compound concentration 1000.0 nM
[36] = biological target: Ephrin type-B receptor 6 (Homo sapiens) (UniProt O15197); settings: Compound concentration 1000.0 nM
[37] = biological target: Vascular endothelial growth factor receptor 1 (Homo sapiens) (UniProt P17948); settings: Compound concentration 1000.0 nM
[38] = biological target: Serine/threonine-protein kinase 24 (Homo sapiens) (UniProt Q9Y6E0); settings: Compound concentration 1000.0 nM
[39] = biological target: Dual serine/threonine and tyrosine protein kinase (Homo sapiens) (UniProt Q6XUX3); settings: Compound concentration 1000.0 nM

Serine/threonine-protein kinase WNK4 (Homo sapiens), sequence (Q96J92 whole entry): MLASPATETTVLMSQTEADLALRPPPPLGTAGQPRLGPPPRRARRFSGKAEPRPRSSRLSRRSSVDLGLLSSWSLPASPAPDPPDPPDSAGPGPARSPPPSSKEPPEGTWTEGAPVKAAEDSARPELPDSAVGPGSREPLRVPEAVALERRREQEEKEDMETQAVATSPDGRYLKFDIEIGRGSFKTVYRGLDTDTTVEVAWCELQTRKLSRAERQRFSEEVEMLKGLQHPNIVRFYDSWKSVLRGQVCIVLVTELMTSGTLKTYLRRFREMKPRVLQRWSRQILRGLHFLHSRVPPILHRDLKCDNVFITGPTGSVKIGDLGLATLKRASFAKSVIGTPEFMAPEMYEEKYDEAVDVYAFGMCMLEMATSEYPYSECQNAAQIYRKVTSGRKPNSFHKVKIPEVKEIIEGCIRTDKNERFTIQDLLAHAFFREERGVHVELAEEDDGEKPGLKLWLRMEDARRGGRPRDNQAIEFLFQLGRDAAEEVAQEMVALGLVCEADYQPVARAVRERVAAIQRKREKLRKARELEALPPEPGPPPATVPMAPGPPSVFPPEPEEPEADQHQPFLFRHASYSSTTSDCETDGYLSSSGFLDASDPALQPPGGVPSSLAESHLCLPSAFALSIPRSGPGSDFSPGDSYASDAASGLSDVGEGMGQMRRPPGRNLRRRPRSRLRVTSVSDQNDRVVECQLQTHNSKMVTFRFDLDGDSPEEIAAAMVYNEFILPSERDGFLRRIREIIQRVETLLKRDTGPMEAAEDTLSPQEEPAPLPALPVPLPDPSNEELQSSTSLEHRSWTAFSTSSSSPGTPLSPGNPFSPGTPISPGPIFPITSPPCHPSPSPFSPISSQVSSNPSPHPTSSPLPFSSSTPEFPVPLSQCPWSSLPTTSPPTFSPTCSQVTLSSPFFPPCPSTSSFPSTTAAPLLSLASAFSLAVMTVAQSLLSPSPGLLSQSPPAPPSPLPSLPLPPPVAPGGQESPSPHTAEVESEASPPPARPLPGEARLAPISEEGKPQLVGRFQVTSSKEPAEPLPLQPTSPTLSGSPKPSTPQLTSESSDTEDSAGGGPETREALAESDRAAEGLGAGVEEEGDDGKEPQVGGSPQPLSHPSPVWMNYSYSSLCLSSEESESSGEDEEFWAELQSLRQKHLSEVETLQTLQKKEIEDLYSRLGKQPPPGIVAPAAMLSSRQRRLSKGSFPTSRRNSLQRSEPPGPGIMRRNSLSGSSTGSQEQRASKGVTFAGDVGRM
Serine/threonine-protein kinase D1 (Homo sapiens), sequence (Q15139 whole entry): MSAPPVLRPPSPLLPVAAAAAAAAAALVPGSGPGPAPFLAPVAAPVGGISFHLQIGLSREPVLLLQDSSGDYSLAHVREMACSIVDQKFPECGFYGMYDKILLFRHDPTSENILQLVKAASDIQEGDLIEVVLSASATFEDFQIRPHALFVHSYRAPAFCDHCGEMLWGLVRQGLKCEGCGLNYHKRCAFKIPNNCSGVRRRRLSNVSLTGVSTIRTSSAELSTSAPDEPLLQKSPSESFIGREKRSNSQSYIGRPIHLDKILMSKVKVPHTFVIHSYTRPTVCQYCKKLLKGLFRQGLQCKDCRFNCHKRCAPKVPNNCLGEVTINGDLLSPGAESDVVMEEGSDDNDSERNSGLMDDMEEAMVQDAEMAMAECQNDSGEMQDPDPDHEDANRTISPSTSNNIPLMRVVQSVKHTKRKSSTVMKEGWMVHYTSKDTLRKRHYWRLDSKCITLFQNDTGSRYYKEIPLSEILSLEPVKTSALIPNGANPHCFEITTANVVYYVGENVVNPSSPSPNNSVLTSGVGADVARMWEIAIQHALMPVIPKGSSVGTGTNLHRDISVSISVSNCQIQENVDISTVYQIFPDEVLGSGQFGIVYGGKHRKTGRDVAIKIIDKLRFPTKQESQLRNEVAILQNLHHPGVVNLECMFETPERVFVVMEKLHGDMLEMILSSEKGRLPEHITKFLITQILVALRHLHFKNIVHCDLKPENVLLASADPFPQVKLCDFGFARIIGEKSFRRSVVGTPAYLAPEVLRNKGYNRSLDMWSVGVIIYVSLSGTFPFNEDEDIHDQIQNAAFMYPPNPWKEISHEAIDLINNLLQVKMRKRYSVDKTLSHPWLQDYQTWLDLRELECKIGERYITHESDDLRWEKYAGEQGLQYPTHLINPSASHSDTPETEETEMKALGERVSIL
Serine/threonine-protein kinase DCLK3 (Homo sapiens), sequence (Q9C098 whole entry): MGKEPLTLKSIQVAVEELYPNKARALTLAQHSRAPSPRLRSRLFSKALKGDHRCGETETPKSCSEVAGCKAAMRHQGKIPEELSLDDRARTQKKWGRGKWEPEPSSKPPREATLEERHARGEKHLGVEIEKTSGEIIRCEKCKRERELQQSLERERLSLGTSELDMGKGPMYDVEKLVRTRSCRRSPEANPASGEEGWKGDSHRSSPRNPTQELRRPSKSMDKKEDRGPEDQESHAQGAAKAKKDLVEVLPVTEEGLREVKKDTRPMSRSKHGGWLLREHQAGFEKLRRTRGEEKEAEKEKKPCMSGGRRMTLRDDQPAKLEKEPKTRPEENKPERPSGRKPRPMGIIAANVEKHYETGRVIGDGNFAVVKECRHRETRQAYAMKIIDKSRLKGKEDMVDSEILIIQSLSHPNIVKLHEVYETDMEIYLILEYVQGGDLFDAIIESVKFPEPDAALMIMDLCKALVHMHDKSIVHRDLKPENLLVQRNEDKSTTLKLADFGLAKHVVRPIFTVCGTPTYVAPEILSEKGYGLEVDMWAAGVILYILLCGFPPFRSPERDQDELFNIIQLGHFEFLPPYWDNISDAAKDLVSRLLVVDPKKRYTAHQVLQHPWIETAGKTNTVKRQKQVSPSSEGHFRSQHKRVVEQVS
Ephrin type-A receptor 5 (Homo sapiens), sequence (P54756 whole entry): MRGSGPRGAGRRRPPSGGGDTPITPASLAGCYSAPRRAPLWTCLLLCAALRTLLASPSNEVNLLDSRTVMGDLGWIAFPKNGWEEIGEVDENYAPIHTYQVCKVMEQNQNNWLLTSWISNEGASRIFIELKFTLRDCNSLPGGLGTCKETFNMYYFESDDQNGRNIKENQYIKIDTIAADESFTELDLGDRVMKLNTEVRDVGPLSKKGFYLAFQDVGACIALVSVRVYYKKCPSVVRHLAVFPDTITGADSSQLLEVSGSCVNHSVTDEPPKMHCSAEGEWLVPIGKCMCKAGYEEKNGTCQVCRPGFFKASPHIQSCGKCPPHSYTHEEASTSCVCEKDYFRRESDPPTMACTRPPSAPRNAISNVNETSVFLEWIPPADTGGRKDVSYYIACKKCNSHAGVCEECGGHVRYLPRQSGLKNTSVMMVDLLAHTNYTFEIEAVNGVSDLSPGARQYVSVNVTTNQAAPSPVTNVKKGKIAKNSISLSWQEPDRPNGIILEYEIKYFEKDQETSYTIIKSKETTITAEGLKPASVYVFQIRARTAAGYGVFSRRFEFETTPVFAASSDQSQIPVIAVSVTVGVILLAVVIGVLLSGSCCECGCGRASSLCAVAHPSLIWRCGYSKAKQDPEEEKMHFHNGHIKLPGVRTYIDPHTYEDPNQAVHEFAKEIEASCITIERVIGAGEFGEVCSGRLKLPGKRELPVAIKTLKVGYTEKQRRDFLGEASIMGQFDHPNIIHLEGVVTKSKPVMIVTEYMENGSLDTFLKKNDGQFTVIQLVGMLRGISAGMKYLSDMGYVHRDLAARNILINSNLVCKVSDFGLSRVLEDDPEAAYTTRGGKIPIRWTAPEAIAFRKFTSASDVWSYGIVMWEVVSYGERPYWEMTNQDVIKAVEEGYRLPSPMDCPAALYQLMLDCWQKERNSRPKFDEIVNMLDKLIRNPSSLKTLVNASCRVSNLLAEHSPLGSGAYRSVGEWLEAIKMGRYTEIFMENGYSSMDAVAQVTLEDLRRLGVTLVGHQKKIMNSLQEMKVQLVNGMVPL
Phosphatidylinositol 4,5-bisphosphate 3-kinase catalytic subunit alpha isoform (Homo sapiens), P42336 [Q546K], sequence (P42336 whole entry Q546K, canonical isoform): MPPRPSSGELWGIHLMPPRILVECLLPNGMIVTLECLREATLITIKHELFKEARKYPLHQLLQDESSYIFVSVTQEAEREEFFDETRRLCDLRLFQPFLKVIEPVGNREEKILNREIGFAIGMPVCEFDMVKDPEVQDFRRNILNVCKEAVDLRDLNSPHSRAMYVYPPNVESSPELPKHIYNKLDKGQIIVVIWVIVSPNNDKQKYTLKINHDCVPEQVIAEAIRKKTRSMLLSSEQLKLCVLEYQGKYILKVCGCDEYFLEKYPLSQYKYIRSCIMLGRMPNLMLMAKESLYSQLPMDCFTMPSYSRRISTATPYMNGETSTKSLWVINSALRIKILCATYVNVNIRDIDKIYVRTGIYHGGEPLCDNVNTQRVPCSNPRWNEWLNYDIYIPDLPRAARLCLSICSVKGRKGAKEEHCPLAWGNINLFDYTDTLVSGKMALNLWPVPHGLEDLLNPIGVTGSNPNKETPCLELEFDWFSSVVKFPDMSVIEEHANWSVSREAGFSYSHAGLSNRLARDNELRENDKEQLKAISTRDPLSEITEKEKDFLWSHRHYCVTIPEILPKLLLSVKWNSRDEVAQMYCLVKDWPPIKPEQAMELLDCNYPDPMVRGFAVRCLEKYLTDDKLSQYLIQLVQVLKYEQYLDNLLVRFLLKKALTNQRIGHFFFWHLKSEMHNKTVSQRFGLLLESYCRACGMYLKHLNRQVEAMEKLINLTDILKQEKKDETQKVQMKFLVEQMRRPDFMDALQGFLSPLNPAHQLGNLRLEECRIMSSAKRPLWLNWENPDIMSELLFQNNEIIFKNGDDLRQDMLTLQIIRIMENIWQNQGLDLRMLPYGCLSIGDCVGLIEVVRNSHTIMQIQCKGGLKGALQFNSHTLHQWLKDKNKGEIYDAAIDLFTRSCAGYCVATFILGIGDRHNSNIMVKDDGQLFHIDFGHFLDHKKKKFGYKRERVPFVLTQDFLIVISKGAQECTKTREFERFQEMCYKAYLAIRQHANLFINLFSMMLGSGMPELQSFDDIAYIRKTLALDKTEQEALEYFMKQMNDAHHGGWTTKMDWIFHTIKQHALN
Phosphatidylinositol 4,5-bisphosphate 3-kinase catalytic subunit alpha isoform (Homo sapiens), P42336 [C420R], sequence (P42336 whole entry C420R, canonical isoform): as the sequence (P42336 whole entry Q546K, canonical isoform) above, with C420R, K546Q counted along it

Row | SMILES | residual activity [1] [%] | residual activity [2] [%] | inhibition [3] [%] | residual activity [4] [%] | residual activity [5] [%] | residual activity [6] [%] | residual activity [7] [%] | residual activity [8] [%] | residual activity [9] [%] | residual activity [10] [%] | residual activity [11] [%] | residual activity [12] [%] | residual activity [13] [%] | residual activity [14] [%] | residual activity [15] [%] | residual activity [16] [%] | residual activity [17] [%] | residual activity [18] [%] | residual activity [19] [%] | residual activity [20] [%] | also measured
1 | CCC(=N\O)/C(C)=C/c1ccc(F)c(C)c1 [A-226] | 100 | 46 | -0.91 | 81 | 61 | 61 | 49 | 83 | 82 | 100 | 100 | 90 | 100 | 79 | 100 | 100 | 88 | 85 | 100 | 78 | residual activity [21]: 100%; inhibition [22]: 0.44%; inhibition [23]: 33.1%; residual activity [24]: 79%; residual activity [25]: 92%; inhibition [26]: 8.6%; residual activity [27]: 100%; residual activity [28]: 79%; inhibition [29]: 10.8%; residual activity [30]: 91%; residual activity [31]: 88%; residual activity [32]: 100%; residual activity [33]: 92%; inhibition [34]: -0.42%; residual activity [35]: 83%; residual activity [36]: 100%; residual activity [37]: 100%; residual activity [38]: 86%; residual activity [39]: 95%
2 | CCC(=N\O)/C(C)=C/c1ccc(F)cc1 [A-079] | 100 | 91 | 13.4 | 95 | 87 | 100 | 74 | 96 | 77 | 90 | 91 | 82 | 79 | 67 | 71 | 77 | 79 | 87 | 79 | 100 | residual activity [21]: 84%; inhibition [22]: -4.62%; inhibition [23]: 15.1%; residual activity [24]: 64%; residual activity [25]: 82%; inhibition [26]: 14.5%; residual activity [27]: 94%; residual activity [28]: 88%; inhibition [29]: 9.43%; residual activity [30]: 100%; residual activity [31]: 80%; residual activity [32]: 72%; residual activity [33]: 100%; inhibition [34]: -2.32%; residual activity [35]: 83%; residual activity [36]: 95%; residual activity [37]: 87%; residual activity [38]: 100%; residual activity [39]: 66%
